Experimental data published in US9884868B2, “TGF-beta inhibitors” (Rigel Pharmaceuticals, Inc., priority 2015, dated 2018).

Experiments:
HIS-TGF-βR2 WT = HIS-TGF-βR2 WT (Homo sapiens (Human), UniProt P37173); assay: HTRF probe displacement assay with HIS-TGF-βR2 WT; settings: read-out: TGFBr2 IC50; HTRF probe displacement, 1 nM HIS-TGF-βR2 WT, 1 hour at room temperature
HIS-TGF-βR1 T204D = HIS-TGF-βR1 T204D (Homo sapiens (Human), UniProt P36897, T204D); assay: HTRF probe displacement assay with HIS-TGF-βR1 T204D; settings: read-out: TGFbr1 IC50; HTRF probe displacement, 1 nM HIS-TGF-βR1 T204D, 1 hour at room temperature
Chain of HIS-TGF-βR1 T204D (P36897 34-503 T204D): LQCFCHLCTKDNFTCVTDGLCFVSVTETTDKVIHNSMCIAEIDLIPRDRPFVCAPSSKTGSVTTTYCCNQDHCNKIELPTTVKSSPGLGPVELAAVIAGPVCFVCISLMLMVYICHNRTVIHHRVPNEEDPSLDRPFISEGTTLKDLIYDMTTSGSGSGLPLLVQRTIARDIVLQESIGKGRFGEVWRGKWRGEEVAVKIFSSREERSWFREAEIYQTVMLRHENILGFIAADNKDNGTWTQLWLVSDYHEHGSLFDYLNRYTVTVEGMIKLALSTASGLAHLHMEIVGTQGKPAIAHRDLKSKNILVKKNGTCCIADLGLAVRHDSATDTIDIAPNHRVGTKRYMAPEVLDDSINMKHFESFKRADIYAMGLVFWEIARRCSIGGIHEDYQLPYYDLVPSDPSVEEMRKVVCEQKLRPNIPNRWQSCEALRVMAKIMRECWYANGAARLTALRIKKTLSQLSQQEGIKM

Chain of HIS-TGF-βR2 WT (P37173 23-567): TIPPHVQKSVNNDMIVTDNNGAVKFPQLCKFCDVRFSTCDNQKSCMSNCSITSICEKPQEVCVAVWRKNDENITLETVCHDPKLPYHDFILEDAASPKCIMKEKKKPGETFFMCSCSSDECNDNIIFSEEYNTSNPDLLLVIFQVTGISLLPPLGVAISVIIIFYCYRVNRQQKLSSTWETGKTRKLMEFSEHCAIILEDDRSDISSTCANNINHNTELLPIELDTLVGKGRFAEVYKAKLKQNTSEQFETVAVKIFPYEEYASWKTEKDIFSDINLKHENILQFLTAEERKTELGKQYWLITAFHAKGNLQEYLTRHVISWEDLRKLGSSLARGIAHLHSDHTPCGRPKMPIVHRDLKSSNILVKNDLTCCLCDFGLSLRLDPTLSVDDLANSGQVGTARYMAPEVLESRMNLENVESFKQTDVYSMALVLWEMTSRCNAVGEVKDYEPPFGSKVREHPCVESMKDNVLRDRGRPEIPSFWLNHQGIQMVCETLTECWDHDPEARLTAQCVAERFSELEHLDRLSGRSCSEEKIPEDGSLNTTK

| IC50 (HIS-TGF-βR2 WT) | IC50 (HIS-TGF-βR1 T204D) | Structure (SMILES) |
| --- | --- | --- |
| > 15000 nM | 12 nM | COC(=O)NCc1cnc2ccc(-c3c(-c4ccc(F)cc4)ncn3CC(F)F)nn12 [Example 200′, methyl ((6-(1-(2,2-difluoroethyl)-4-(4-fluorophenyl)-1H-imidazol-5-yl)imidazo[1,2-b]pyridazin-3-yl)methyl)carbamate] |
| > 15000 nM | 5 nM | CC(C)OC(=O)NCc1cnc2ccc(-c3c(-c4ccc(F)cc4)ncn3CC(F)F)nn12 [Example 201′, isopropyl ((6-(1-(2,2-difluoroethyl)-4-(4-fluorophenyl)-1H-imidazol-5-yl)imidazo[1,2-b]pyridazin-3-yl)methyl)carbamate] |
| > 15000 nM | 43.8 nM | CC(C)(C)C(=O)NCc1cnc2ccc(-c3c(-c4ccc(F)cc4)ncn3CC(F)F)nn12 [Example 202′, N-((6-(1-(2,2-difluoroethyl)-4-(4-fluorophenyl)-1H-imidazol-5-yl)imidazo[1,2-b]pyridazin-3-yl)methyl)pivalamide] |
| > 15000 nM | 4.5 nM | COC(=O)Nc1cnc2ccc(-c3c(-c4ccc(F)cc4)ncn3CC(F)F)nn12 [Example 211′, methyl (6-(1-(2,2-difluoroethyl)-4-(4-fluorophenyl)-1H-imidazol-5-yl)imidazo[1,2-b]pyridazin-3-yl)carbamate] |
| > 15000 nM | 2.3 nM | OC(c1cnc2ccc(-c3c(-c4ccc(F)cc4)ncn3CC(F)F)nn12)C(F)(F)F (centres unmarked) [Example 213′, 1-(6-(1-(2,2-difluoroethyl)-4-(4-fluorophenyl)-1H-imidazol-5-yl)imidazo[1,2-b]pyridazin-3-yl)-2,2,2-trifluoroethanol] |
| > 15000 nM | 121 nM | Fc1ccc(-c2ncn(CC(F)F)c2-c2ccc3ncc(CNCC(F)F)n3c2)cc1 [Example 275′, N-((6-(1-(2,2-difluoroethyl)-4-(4-fluorophenyl)-1H-imidazol-5-yl)imidazo[1,2-a]pyridin-3-yl)methyl)-2,2-difluoroethanamine] |
| > 15000 nM | 9.5 nM | O=C(NC1CC1)c1cnc2ccc(-c3c(-c4ccc(F)cc4)ncn3CC(F)F)cn12 [Example 279′, N-cyclopropyl-6-(1-(2,2-difluoroethyl)-4-(4-fluorophenyl)-1H-imidazol-5-yl)imidazo[1,2-a]pyridine-3-carboxamide] |
| > 15000 nM | 426 nM | COC(=O)Nc1cnc2ccc(-c3c(-c4ccc(F)cc4)ncn3CC(F)F)cn12 [Example 284′, methyl (6-(1-(2,2-difluoroethyl)-4-(4-fluorophenyl)-1H-imidazol-5-yl)imidazo[1,2-a]pyridin-3-yl)carbamate] |
| > 15000 nM | 376 nM | Fc1ccc(-c2ncn(CC(F)F)c2-c2ccc3ncc(N4CCOCC4)n3c2)cc1 [Example 289′, 4-(6-(1-(2,2-difluoroethyl)-4-(4-fluorophenyl)-1H-imidazol-5-yl)imidazo[1,2-a]pyridin-3-yl)morpholine] |
| > 15000 nM | 30.5 nM | COC(=O)N1CCn2c(nc(-c3ccc(F)cc3)c2-c2ccc3ncc(C(N)=O)n3c2)C1 [Example 291′, methyl 3-(3-carbamoylimidazo[1,2-a]pyridin-6-yl)-2-(4-fluorophenyl)-5,6-dihydroimidazo[1,2-a]pyrazine-7(8H)-carboxylate] |
| > 15000 nM | 27.2 nM | NC(=O)c1cnc2ccc(-c3c(-c4ccc(F)cc4)nc4n3CCN(CC(F)F)C4)cn12 [Example 294′, 6-(7-(2,2-difluoroethyl)-2-(4-fluorophenyl)-5,6,7,8-tetrahydroimidazo[1,2-a]pyrazin-3-yl)imidazo[1,2-a]pyridine-3-carboxamide] |

The next lines start with the molecule.

| Structure (SMILES) | IC50 (HIS-TGF-βR2 WT) | IC50 (HIS-TGF-βR1 T204D) |
| --- | --- | --- |
| CC(=O)Nc1cccc(-c2ncn(CC(F)F)c2-c2ccc3ncc(C#N)n3n2)c1 [245′, N-(3-(5-(3-cyanoimidazo[1,2-b]pyridazin-6-yl)-1-(2,2-difluoroethyl)-1H-imidazol-4-yl)phenyl)acetamide] | > 15000 nM | 49.1 nM |
| N#Cc1cnc2ccc(-c3c(-c4ccccc4C(F)(F)F)ncn3CC(F)F)nn12 [246′, 6-(1-(2,2-difluoroethyl)-4-(2-(trifluoromethyl)phenyl)-1H-imidazol-5-yl)imidazo[1,2-b]pyridazine-3-carbonitrile] | > 15000 nM | 144 nM |
| CS(=O)(=O)Nc1cccc(-c2ncn(CC(F)F)c2-c2ccc3ncc(C#N)n3n2)c1 [252′, N-(3-(5-(3-cyanoimidazo[1,2-b]pyridazin-6-yl)-1-(2,2-difluoroethyl)-1H-imidazol-4-yl)phenyl)methanesulfonamide] | > 15000 nM | 7.7 nM |
| CS(=O)(=O)c1cccc(-c2ncn(CC(F)F)c2-c2ccc3ncc(C#N)n3n2)c1 [254′, 6-(1-(2,2-difluoroethyl)-4-(3-(methylsulfonyl)phenyl)-1H-imidazol-5-yl)imidazo[1,2-b]pyridazine-3-carbonitrile] | > 15000 nM | 752 nM |
| N#Cc1cnc2ccc(-c3c(-c4cccc(OC(F)(F)F)c4)ncn3CC(F)F)nn12 [259′, 6-(1-(2,2-difluoroethyl)-4-(3-(trifluoromethoxy)phenyl)-1H-imidazol-5-yl)imidazo[1,2-b]pyridazine-3-carbonitrile] | > 15000 nM | 1 nM |
| N#Cc1cnc2ccc(-c3c(-c4ccc(F)c(C(F)(F)F)c4)ncn3CC(F)F)nn12 [260′, 6-(1-(2,2-difluoroethyl)-4-(4-fluoro-3-(trifluoromethyl)phenyl)-1H-imidazol-5-yl)imidazo[1,2-b]pyridazine-3-carbonitrile] | > 15000 nM | 8.8 nM |
| CC(C)Oc1ccc(-c2ncn(CC(F)F)c2-c2ccc3ncc(C#N)n3n2)cc1 [263′, 6-(1-(2,2-difluoroethyl)-4-(4-isopropoxyphenyl)-1H-imidazol-5-yl)imidazo[1,2-b]pyridazine-3-carbonitrile] | > 15000 nM | 171 nM |
| CC(C)(O)c1cccc(-c2ncn(CC(F)F)c2-c2ccc3ncc(C#N)n3n2)c1 [265′, 6-(1-(2,2-difluoroethyl)-4-(3-(2-hydroxypropan-2-yl)phenyl)-1H-imidazol-5-yl)imidazo[1,2-b]pyridazine-3-carbonitrile] | > 15000 nM | 9.8 nM |
| CCOC(=O)c1cnc2ccc(-c3c(-c4ccc(F)cc4)ncn3CC(F)F)cn12 [274C′, ethyl 6-(1-(2,2-difluoroethyl)-4-(4-fluorophenyl)-1H-imidazol-5-yl)imidazo[1,2-a]pyridine-3-carboxylate] | > 15000 nM | 7 nM |
| Fc1ccc(-c2ncn(CC(F)F)c2-c2ccc3ncc(CNC4CC(F)(F)C4)n3c2)cc1 [276′, N-((6-(1-(2,2-difluoroethyl)-4-(4-fluorophenyl)-1H-imidazol-5-yl)imidazo[1,2-a]pyridin-3-yl)methyl)-3,3-difluorocyclobutanamine] | > 15000 nM | 988 nM |
| NC(=O)CNC(=O)c1cnc2ccc(-c3c(-c4ccc(F)cc4)ncn3CC(F)F)cn12 [280′] | > 15000 nM | 3.2 nM |
| CC(=O)Nc1nc(-c2ccc(F)cc2)c(-c2ccc3ncc(C#N)n3c2)n1CC(F)F [297′] | > 15000 nM | 542 nM |
| COC(=O)N1CC(n2cnc(-c3ccc(F)cc3)c2-c2ccc3ncc(C#N)n3n2)C1 [Example 190′, methyl 3-(5-(3-cyanoimidazo[1,2-b]pyridazin-6-yl)-4-(4-fluorophenyl)-1H-imidazol-1-yl)azetidine-1-carboxylate] | > 15000 nM | 52.7 nM |
| CC(=O)N1CC(n2cnc(-c3ccc(F)cc3)c2-c2ccc3ncc(C#N)n3n2)C1 [Example 191′, 6-(1-(1-acetylazetidin-3-yl)-4-(4-fluorophenyl)-1H-imidazol-5-yl)imidazo[1,2-b]pyridazine-3-carbonitrile] | > 15000 nM | 72.7 nM |
| N#Cc1cnc2ccc(-c3c(-c4ccc(F)cc4)ncn3C3CN(C(=O)C4CC4)C3)nn12 [Example 192′, 6-(1-(1-(cyclopropanecarbonyl)azetidin-3-yl)-4-(4-fluorophenyl)-1H-imidazol-5-yl)imidazo[1,2-b]pyridazine-3-carbonitrile] | > 15000 nM | 229 nM |
| CC(C)(C)NC(=O)N1CC(n2cnc(-c3ccc(F)cc3)c2-c2ccc3ncc(C#N)n3n2)C1 [Example 193′, N-(tert-butyl)-3-(5-(3-cyanoimidazo[1,2-b]pyridazin-6-yl)-4-(4-fluorophenyl)-1H-imidazol-1-yl)azetidine-1-carboxamide] | > 15000 nM | 227 nM |
| CC(C)(C)NC(=O)N1CC(n2cnc(-c3ccc(F)cc3)c2-c2ccc3ncc(C(N)=O)n3n2)C1 [Example 195′, 6-(1-(1-(tert-butylcarbamoyl)azetidin-3-yl)-4-(4-fluorophenyl)-1H-imidazol-5-yl)imidazo[1,2-b]pyridazine-3-carboxamide] | > 15000 nM | 436 nM |
| CC(=O)NCc1cnc2ccc(-c3c(-c4ccc(F)cc4)ncn3CC(F)F)nn12 [Example 197′, N-((6-(1-(2,2-difluoroethyl)-4-(4-fluorophenyl)-1H-imidazol-5-yl)imidazo[1,2-b]pyridazin-3-yl)methyl)acetamide] | > 15000 nM | 11.9 nM |
| O=C(NCc1cnc2ccc(-c3c(-c4ccc(F)cc4)ncn3CC(F)F)nn12)C1CC1 [Example 198′, N-((6-(1-(2,2-difluoroethyl)-4-(4-fluorophenyl)-1H-imidazol-5-yl)imidazo[1,2-b]pyridazin-3-yl)methyl)cyclopropanecarboxamide] | > 15000 nM | 5.3 nM |
| CC(C)(C)NC(=O)NCc1cnc2ccc(-c3c(-c4ccc(F)cc4)ncn3CC(F)F)nn12 [Example 199′, 1-(tert-butyl)-3-((6-(1-(2,2-difluoroethyl)-4-(4-fluorophenyl)-1H-imidazol-5-yl)imidazo[1,2-b]pyridazin-3-yl)methyl)urea] | > 15000 nM | 9.5 nM |
